Reference: US7052850B2, “Isolated human EDG-4 receptor” (priority 1997, dated 2006)

System: pcDNA3-transfected 293-EBNA cells
Experiment: SRE luciferase reporter in 293-EBNA cells, empty vector pcDNA3
Type: cell-based
Settings: for SRE reporter response: Assay 3, 3 μM
Experimental: The protocol described in Example 11 for Assay 1 was allowed except for the following changes: • 1) 100 mm plates of 293-EBNA ith a confluency of ˜80% were used for transfection, • 2) SRE Cotransfection: 0.5 μg of 2XSREtk-p4Luc-zeo reporter DNA and 3.5 μg pcDNA3, EDG-1, EDG-3 pC3-hE3P2, different from the clone used in Assay 2 of Example 11) or the newly cloned human EDG-4 (pC3-hedg4#36); NF-κB Cotransfection: 2 μg 6XNFκBtk-p4LUc-zeo reporter DNA and 2.0 μg pcDNA3, EDG-1, EDG-3 (pC3-hE3HP2), or EDG-4 (pC3-hedg4#36). Expression plasmid and reporter plasmid DNA samples were combined and diluted in 750 μl of DMEM/F12 (serum free media) and 20 μl Plus Reagent (Lipofectamine Plus Kit, Life Technologies Cat. 109640-13), and incubated at room temperature for 15 min. • 3) 30 μl Lipofectamine Reagent (Lipofectamine Plus Kit) was diluted in 750 μl DMEM/F12. The diluted Lipofectamine was then combined with the DNA/Plus mixture and incubated at room temperature for 15 min. • 4) The 293-EBNA plates were washed once with PBS and 5 ml DMEM/F12 was added to each plate. • 5) DNA/Plus/Lipofectamine mixture was added to each plate of 293-EBNA cells. The plates were left for 3 hr at 37° C. in a 5% CO2 incubator. • 6) The transfection medium was replaced with serum-free DMEM/F12 for cells transfected with 2XSREtk-p4Luc-zeo reporter DNA and with DMEM/F12 plus 10% FBS for cells transfected with 6XNFκBtk-p4Luc-zeo reporter DNA. • Day 2. • 2) Transfected cells were harvested by trypsinization and 50,000 cells per well were plated in 96-well Blackview plates coated with poly D-lysine Becton Dickinson Labware, Cat. 40640). No cells were plated in the outside wells of the 96-well plate. • Day 3. • 1) Media for cells transfected with 6XNF-κBtk-p4Luc-zeo reporter DNA was replaced with DMEM/F12 plus 0.5% FBS. • Day 4. • 1) Media was removed and cells treated with compounds diluted in DMEM/F12 media. The following treatments were used for all transfections:
Transfection was accomplished using the Lipofectamine Plus kit (Life Technologies, Cat. 10964-013), using the manufacturer's recommended conditions. Optimal SRE induction was seen when cells were seeded so as to become 100% confluent at the time of treatment, 72–96 hr after transfection.
293-EBNA cells were grown, lipofected in monolayer cultures, and pretreated as described above for Example 11, assay #1, except that NF-κB and AP-1 reporter-transfected cells were preteated for 6 hr in medium containing 0.5% […], then treated overnight in the same medium with or without 10 μM LPA.

Compound | SRE reporter response (pcDNA3 control) | endogenous SRE reporter response vs untreated control cells (pcDNA3, 10 μM LPA) | induction of the SRE reporter (Example 15A, pcDNA3 control, 3 μM SPC, 6 hr)
CCCCCCCCCCCCC/C=C/[C@@H](O)[C@@H](N)COP(=O)(O)O [S1P, sphingosine 1-phosphate] | about 1.5 fold | – | –
lysophosphatidic acid [LPA] | – | about 1.5 fold | –
CCCCCCCCCCCCC/C=C/[C@@H](O)[C@@H](N)COP(=O)([O-])OCC[N+](C)(C)C [SPC, sphingosylphosphorylcholine] | not | – | about 2.5 fold
